# Test results from patent US4935579A, “Separation of m-diisopropylbenzene from p-diisopropylbenzene by azeotropic distillation with alcohols” (priority 1988, dated 1990).
# What was measured:
# [1] = Vapor-liquid equilibrium still: relative volatility of m-DIPB to p-DIPB with alcohol agent and azeotrope boiling point; assay type: physicochemical; conditions: for Azeotrope B.P.: 640 mm. Hg; for Azeotrope B.P. / Relative Volatility (m-DIPB to p-DIPB): starting mixture 50 % alcohol, 25 % m-DIPB, 25 % p-DIPB; for Relative Volatility (m-DIPB to p-DIPB): vapor-liquid equilibrium still; for vapor composition, m-DIPB / vapor composition, p-DIPB: gas chromatography; for relative volatility of m-DIPB to p-DIPB: Examples 1 and 2, reflux thirteen or eleven hours
# Source text: The data in Tables 2 and 3 were obtained in a vapor-liquid equilibrium still. In each case, the starting material was a mixture containing 50 % alcohol, 25 % m-DIPB and 25 % p-DIPB. The boiling points of the azeotropes at 640 mm. Hg are shown. The relative volatilities are listed for each of the alcohols investigated.
# Forty grams of m-DIPB - p-DIPB mixture and 40 grams of diethylene glycol butyl ether were charged to an Othmer type vapor-liquid equilibrium still and refluxed for thirteen hours. Analysis by gas chromatography gave a vapor composition of 68.9% m-DIPB, 31.1% p-DIPB; a liquid decomposition of […], 36.8% p-DIPB. This indicates a relative volatility of m-DIPB to p-DIPB of 1.29.
# Forty grams of m-DIPB - p-DIPB mixture and 40 grams of diethylene gylcol methyl ether were charged to the vapor-liquid equilibrium still and refluxed for eleven hours. Analysis indicated a vapor composition of 66.7% m-DIPB, 33.3% p-DIPB; a liquid composition of […] which is a relative volatility of 1.28.
# [2] = no agent; prior art description; cited from earlier work
# [3] = Packed rectification column (Berl saddles, 2.3 theoretical plates), Fenske equation; assay type: physicochemical; conditions: 80 g m-DIPB, 20 g p-DIPB, 40 g agent, two hours total reflux
# Source text: A solution comprising 80 grams of m-DIPB, 20 grams of p-DIPB and 40 grams of o-isopropyl phenol was placed in the stillpot and heated. After two hours of refluxing a total reflux, analysis was made by gas chromatography. The overhead composition was 78% m-DIPB, 22% p-DIPB and the stillpot analysis was 62.7% m-DIPB, 37.3% p-DIPB. Using these compositions in the Fenske equation with the number of theoretical plates in the column being 2.3 gave an average relative volatility of 1.34 for each theoretical plate.
# [4] = m-DIPB and p-DIPB, no agent; cited from earlier work
# [5] = Boiling point and rectification of the isomers without agent; assay type: physicochemical; conditions: 99% purity, 75% efficiency, no agent
# Experimental: In the manufacture of cumene, also called isopropylbenzene, by the alkylation of benzene with propylene, the most prevalent by-products are the diisopropylbenzenes with the meta and para isomers comprising most of the by-product. m-Diisopropylbenzene (m-DIPB) boils at 203.2° C. […] boils at 210.3° C. and these two have a relative volatility of 1.14. The difficulty of separating these two by rectification can be shown by the data in Table 1.
# that rectification of m-DIPB from p-DIPB in 99% purity requires 95 actual plates. Using azeotropic distillation with an agent yielding a relative volatility of 1.29 would require only 48 actual plates.
# [6] = 40 g m-DIPB - p-DIPB mixture and 40 g agent
Compound,Azeotrope B.P. [1] [°C],Relative Volatility (m-DIPB to p-DIPB) [1],further results
CCCCOCCOCC(C)O (stereo not drawn) [Butoxyethoxypropanol],199,1.17,
CCCCOCCO [Ethylene glycol butyl ether],,0.6,
Cc1ccc(O)cc1 [p-Cresol],188,1.25,
CC(C)(C)c1ccccc1O [o-tert. Butyl phenol],205,1.20,
CCCCC(CC)CO (stereo not drawn) [2-Ethyl hexanol],183,1.27,Relative Volatility of alcohol:DIPB mixture ([1]; one part agent with one part m-DIPB - p-DIPB mixture): 1.27
CCCCCCCCO [1-Octanol],,1.14,
CC(O)CO (stereo not drawn) [Propylene glycol],168,1.28,
Dipropylene glycol methyl ether,186,,
CC(C)CC(O)CC(C)C [Diisobutyl carbinol],180,1.20,
CC(C)CCCCCO [Isooctanol],,1.15,
OCC1CCCO1 (stereo not drawn) [Tetrahydrofurfuryl alcohol],171,1.21,
COCCOCCO [Diethylene glycol methyl ether],182,1.28,"liquid composition, m-DIPB [1, 6]: 60.9%; vapor composition, m-DIPB [1, 6]: 66.7%; vapor composition, p-DIPB [1, 6]: 33.3%; relative volatility of m-DIPB to p-DIPB [1, 6]: 1.28"
CCCCOCCOCCO [Diethylene glycol butyl ether],200,1.29,"liquid composition, m-DIPB [1, 6]: 63.2%; liquid composition, p-DIPB (second figure) [1, 6]: 36.8%; vapor composition, m-DIPB [1, 6]: 68.9%; vapor composition, p-DIPB [1, 6]: 31.1%; relative volatility of m-DIPB to p-DIPB [1, 6]: 1.29"
CCCCCCO [n-Hexanol],,1.10,
Cc1ccccc1O [o-Cresol],184,1.26,
OCCOc1ccccc1 [Ethylene glycol phenyl ether],,1.14,
"CC(C)c1ccc(C(C)C)cc1 [p-DIPB, p-diisopropylbenzene]",,,boiling point [2]: 210.3 °C
Oc1ccccc1 [Phenol],174,1.24,
CCOCCOCCO [Diethylene glycol ethyl ether],185,1.25,
CCCCCCOCCO [Ethylene glycol hexyl ether],195,1.26,
Cc1cccc(O)c1 [m-Cresol],189,1.17,
CC(C)c1ccccc1O [o-Isopropyl phenol],200,1.34,"overhead composition, m-DIPB [3]: 78%; overhead composition, p-DIPB [3]: 22%; stillpot composition, m-DIPB [3]: 62.7%; stillpot composition, p-DIPB [3]: 37.3%; average relative volatility for each theoretical plate ([3]; Fenske equation, 2.3 plates): 1.34"
CCCCCCCCCO [n-Nonyl alcohol],196,1.23,
OCCc1ccccc1 [Phenethyl alcohol],,1.06,
CCCCCCC(C)O (stereo not drawn) [2-Octanol],,1.10,
CCC(C)c1ccccc1O (stereo not drawn) [o-sec. Butyl phenol],205,1.23,
OCc1ccccc1 [Benzyl alcohol],,1.11,
CC(=O)CC(C)(C)O [Diacetone alcohol],,1.13,
"CC(C)c1cccc(C(C)C)c1 [m-DIPB, m-Diisopropylbenzene]",,,relative volatility used in column calibration [4]: 1.14; actual plates required for rectification of m-DIPB from p-DIPB [5]: 95 actual plates; boiling point [2]: 203.2 °C; relative volatility of m-DIPB and p-DIPB without agent [2]: 1.14
CC(C)CCCCCCO [Isononyl alcohol],194,1.22,
